Measured values from PubChem BioAssay (NCI).
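96-well plates; 48 h exposure; 5 concentrations. Endpoints by linear interpolation between flanking doses. Not reached: highest tested concentration assigned. TGI: total growth inhibition.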

How the values were obtained:
Assay in all cases: DTP human tumour cell line panel, 48 h
A498 renal = system: A498 renal
SK-OV-3 ovarian = system: SK-OV-3 ovarian
NCI-H226 lung = system: NCI-H226 lung
HT29 colon = system: HT29 colon
UO-31 renal = system: UO-31 renal
MOLT-4 leukemia = system: MOLT-4 leukemia
NCI-H522 lung = system: NCI-H522 lung
MDA-MB-231 breast = system: MDA-MB-231 breast
LOX IMVI melanoma = system: LOX IMVI melanoma
SF-268 CNS = system: SF-268 CNS
COLO 205 colon = system: COLO 205 colon
SK-MEL-5 melanoma = system: SK-MEL-5 melanoma
SN12C renal = system: SN12C renal
UACC-257 melanoma = system: UACC-257 melanoma
RPMI-8226 leukemia = system: RPMI-8226 leukemia
PC-3 prostate = system: PC-3 prostate
K-562 leukemia = system: K-562 leukemia
ACHN renal = system: ACHN renal
HOP-92 NSCLC = system: HOP-92 NSCLC
HCT-15 colon = system: HCT-15 colon

Compound	TGI (A498 renal)	TGI (SK-OV-3 ovarian)	TGI (NCI-H226 lung)	TGI (HT29 colon)	TGI (UO-31 renal)	TGI (MOLT-4 leukemia)	TGI (NCI-H522 lung)	TGI (MDA-MB-231 breast)	TGI (LOX IMVI melanoma)	TGI (SF-268 CNS)	TGI (COLO 205 colon)	TGI (SK-MEL-5 melanoma)	TGI (SN12C renal)	TGI (UACC-257 melanoma)	TGI (RPMI-8226 leukemia)	TGI (PC-3 prostate)	TGI (K-562 leukemia)	TGI (ACHN renal)	TGI (HOP-92 NSCLC)	TGI (HCT-15 colon)
COc1ccc(CC2c3cc(Oc4cc(CC5c6cc(OC)c(OC)cc6CCN5C)ccc4O)c(OC)cc3CCN2C)cc1 (stereo not given)	14.8 µM	16.5 µM	18.6 µM	8.15 µM	11.2 µM	12.9 µM	14.1 µM	14.8 µM	10.7 µM	17 µM	14.7 µM	14.4 µM	14.8 µM	15 µM	10.1 µM	11.4 µM	5.28 µM	13.5 µM	14.6 µM	4.6 µM
NS(=O)(=O)c1nn2c(Br)c(-c3ccccc3)nc2s1	31 µM	28.4 µM	4.6 µM	8.4 µM	15.5 µM	5.67 µM	3.55 µM	15.9 µM	4.49 µM	30.9 µM	18.4 µM	6.48 µM	7.94 µM	15.5 µM	15.5 µM	18.5 µM	21.2 µM	15.2 µM	22.4 µM	11.6 µM
CC1(CCCO)CCCCCC(C)(CCCO)C1=O (stereo not given)	> 100 µM	> 100 µM	> 100 µM	> 100 µM	> 100 µM	> 100 µM	> 100 µM	> 100 µM	> 100 µM	> 100 µM	> 100 µM	> 100 µM	> 100 µM	> 100 µM	> 100 µM	> 100 µM	> 100 µM	> 100 µM	> 100 µM	> 100 µM
C[C@@H]1C[C@H]2[C@@H]3CCC4=CC(=O)C=C[C@]4(C)[C@@]3(Cl)[C@@H](Cl)C[C@]2(C)[C@@]1(O)C(=O)COP(=O)(O)O	> 100 µM	> 100 µM	> 100 µM	> 100 µM	> 100 µM	> 100 µM	> 100 µM	> 100 µM	> 100 µM	> 100 µM	> 100 µM	> 100 µM	33.1 µM	> 100 µM	> 100 µM	> 100 µM	> 100 µM	> 100 µM	> 100 µM	> 100 µM
COc1cc(C2c3cc4c(cc3OC(N3CCCC3)C2C)OCO4)cc(OC)c1O (stereo not given)	56.9 µM	62.4 µM	80.9 µM	> 87.7 µM	> 100 µM	> 100 µM	19.1 µM	> 93.3 µM	> 100 µM	> 100 µM	63 µM	40.5 µM	> 83.7 µM	> 100 µM	> 100 µM	> 80.6 µM	> 95.7 µM	> 100 µM	> 78.5 µM	> 100 µM
CCOC(=O)C1=CC(C)(C(=O)OCC)Nc2c(nc(OC)n(C)c2=O)N1 (stereo not given)	> 10 µM	> 10 µM	> 10 µM	> 10 µM	> 10 µM	> 10 µM	> 10 µM	> 10 µM	> 10 µM	> 10 µM	> 10 µM	> 10 µM	> 10 µM	> 10 µM	> 10 µM	> 10 µM	> 10 µM	> 10 µM	> 10 µM	> 10 µM
Cc1nc2ccccc2c(=O)n1NC(=O)c1ccc(CS)cc1	40.8 µM	78 µM	14.2 µM	> 100 µM	29.9 µM	12.3 µM	27 µM	84.6 µM	0.401 µM	52 µM	62.9 µM	29.2 µM	70.8 µM	> 100 µM	> 100 µM	19.2 µM	68.1 µM	27 µM	40.8 µM	> 100 µM
O=C1N=c2ccccc2=C1c1c(O)[nH]c2ccccc12	64.3 µM	> 100 µM	> 100 µM	17.8 µM	30.5 µM	> 100 µM	25.6 µM	> 100 µM	49.9 µM	> 100 µM	> 100 µM	> 100 µM	51.5 µM	> 100 µM	> 100 µM	26.2 µM	> 100 µM	37.1 µM	81.1 µM	19.6 µM
C=C1CC(c2ccc(OCCCN3C(=O)c4ccccc4C3=O)c(OC)c2)OC1=O (stereo not given)	6.83 µM	29.4 µM	23.4 µM	13.3 µM	7.8 µM	2.72 µM	1.54 µM	30.5 µM	4.53 µM	23 µM	5.33 µM	23.2 µM	25.4 µM	12.8 µM	6.69 µM	25.7 µM	2.68 µM	18.7 µM	3.51 µM	18.6 µM
